Reference: patent publication US10189843B2, “Fused pyrazole derivative having autotaxin inhibitory activity” (The University of Tokyo, priority 2014, dated 2019)

Biological target: T1, Human autotaxin enzyme (Homo sapiens, UniProt Q13822)
T1 construct: purchased R&D System
Experiment: Evaluation of autotaxin inhibitor, Method C (18:0 Lyso PC substrate, choline assay, Resorufin fluorescence)
Format: biochemical
Details: Method C (Test Example 3), read-out: Inhibitory activity (enzyme inhibitory activity, IC50)
Procedure: Test Example 3 (Method C) Evaluation of Autotaxin Inhibitor
Solution B containing 100 mM Tris-HCl buffer (pH7.5), 150 mM NaCl, 5 mM MgCl2, and 0.05% Triton X-100 was prepared. Human autotaxin enzyme (purchased from R&D System) was diluted with Solution B, and 2.5 μl of which was added to a solution of test compound in DMSO. Furthermore, 2.5 μl of 200 μM 18:0 Lyso PC (purchased from Avanti Polar Lipids) in Solution B was added and allowed to react at room temperature for 2 hours. After completion of the reaction, 15 μl of the coline assay reagent (100 mM Tris-HCl buffer (pH7.5), 5 mM MgCl2, 77 μg/ml coline oxidase, 10 μg/ml peroxydase, 25 μM 10-acetyl-3,7-dihydroxyphenoxazine, and excess autotaxin inhibitor) was added and allowed to react at room temperature for 20 minutes. The fluorescent dye Resorufin, which was produced by the reaction, was detected. The fluorescence was detected using ViewLux (PerkinElmer, Inc.) with a excitation wavelength of 531 nm and a fluorescence wavelength of 598 nm.
The percent inhibition of the test compound was calculated by assuming the sample with no test compound as 0% inhibition and the sample with no enzyme as 100% inhibition, and the percent inhibitions at different concentrations of the test compound were plotted to obtain a concentration-dependent curve.

SMILES	IC50 [nM]
CCCCCC1CN(CC(=O)N[C@H](C(=O)O)c2ccccc2)C(=O)c2cc(-c3ccc(Cl)cc3)nn21 (stereo partly shown) [Compound I-0069]	< 10
O=C(O)C1CCN(C(=O)CN2C(=O)c3cc(-c4ccc(Cl)cc4)nn3[C@@H]3CCC[C@@H]32)CC1 [Compound I-0013]	≥ 1000
CCCCCC1CN(CC(=O)N2CCCCC2C(=O)N2CCCCC2)C(=O)c2cc(-c3ccc(Cl)cc3)nn21 (stereo not shown) [Compound I-0041]	10 to 100
CC(C)OCC1CNC(=O)c2cc(-c3ccc(Cl)cc3)nn21 (stereo not shown) [Compound I-0199]	≥ 1000
CCCCCC1CN(Cc2ccc(CO)cc2)C(=O)c2cc(-c3ccc(Cl)cc3)nn21 (stereo not shown) [Compound I-0145]	100 to 1000
CCCCCC1CN(CC(=O)N2CCCC(CC(=O)O)C2)C(=O)c2cc(-c3ccc(Cl)cc3)nn21 (stereo not shown) [Compound I-0053]	10 to 100
CCCCC1CN(CCN2CCOCC2)C(=O)c2cc(-c3ccc(Cl)cc3)nn21 (stereo not shown) [Compound I-0273]	100 to 1000
CCCCC1CN(CNC(C)=O)C(=O)c2cc(-c3ccc(Cl)cc3)nn21 (stereo not shown) [Compound I-0151]	10 to 100
CC(=O)Nc1cc(C#N)ccc1-c1cc2n(n1)[C@@H](C)CN(CC1CCCO1)C2=O (stereo partly shown) [Compound I-0362]	10 to 100
C[C@H]1CN(CC(=O)N2CCCC(C(=O)O)C2)C(=O)c2cc(-c3ccc(Cl)cc3)nn21 (stereo partly shown) [Compound I-0159]	≥ 1000
CCCCC1CN(Cc2ncn(C)n2)C(=O)c2cc(-c3ccc(Cl)cc3)nn21 (stereo not shown) [Compound I-0259]	100 to 1000
N#Cc1ccc(CN2CC(COCC(F)(F)C(F)F)n3nc(-c4ccc(Cl)cc4)cc3C2=O)cc1 (stereo not shown) [Compound I-0190]	10 to 100
C[C@H]1CN(CC(=O)NCCC(=O)O)C(=O)c2cc(-c3ccc(Cl)cc3)nn21 [Compound I-0156]	≥ 1000
C[C@H]1CN(Cc2cccc(OCCCN(C)C)c2)C(=O)c2cc(-c3ccc(Cl)cc3)nn21 [Compound I-0166]	≥ 1000
CCCCCC1CN(CC(=O)Nc2ccc(CCC(=O)O)cc2)C(=O)c2cc(-c3ccc(Cl)cc3)nn21 (stereo not shown) [Compound I-0058]	100 to 1000
CCCCC1CN(Cc2ccc(C#N)cc2)C(=O)c2cc(-c3ccc(Cl)cc3CO)nn21 (stereo not shown) [Compound I-0207]	10 to 100
CCCCCC1CN(Cc2cc(C(C)=O)ccc2OC)C(=O)c2cc(-c3ccc(Cl)cc3)nn21 (stereo not shown) [Compound I-0136]	≥ 1000
CCCCCC1CN(CC(=O)N2CCC(C(=O)NC3(C#N)CC3)CC2)C(=O)c2cc(-c3ccc(Cl)cc3)nn21 (stereo not shown) [Compound I-0295]	10 to 100
CCCCCC1CN(Cc2cncc(C(=O)O)c2)C(=O)c2cc(-c3ccc(Cl)cc3)nn21 (stereo not shown) [Compound I-0185]	10 to 100
CCCCC1CN(Cc2ccc(C#N)cc2)C(=O)c2cc(-c3ccc(Cl)cc3NC(=O)NC)nn21 (stereo not shown) [Compound I-0309]	100 to 1000
CCCCC1CN(Cc2ccc(C#N)cc2)C(=O)c2cc(-c3ccc(Cl)cc3CN(C)C)nn21 (stereo not shown) [Compound I-0282]	≥ 1000
CCCCC1CN(CC(=O)N2CCCC[C@@H]2C)C(=O)c2cc(-c3ccc(Cl)cc3)nn21 (stereo partly shown) [Compound I-0247]	10 to 100
CCCCC1CN(CC(=O)NCCC(=O)N(C)C)C(=O)c2cc(-c3ccc(Cl)cc3)nn21 (stereo not shown) [Compound I-0225]	100 to 1000

SMILES	IC50 [nM]
CCCCC1CN(Cc2ccc(C#N)cc2)C(=O)c2cc(-c3ccc(Cl)cc3C#N)nn21 (stereo not shown) [Compound I-0280]	10 to 100
CCOC(=O)CN1CC(C(C)C)n2nc(-c3ccc(Cl)cc3)cc2C1=O (stereo not shown) [Compound I-0022]	≥ 1000
CCCCCC1CN(CC(=O)N2CCCC2Cc2ccccc2)C(=O)c2cc(-c3ccc(Cl)cc3)nn21 (stereo not shown) [Compound I-0072]	≥ 1000
CCCCC1CN(CC(=O)NC(C#N)Cc2ccccc2)C(=O)c2cc(-c3ccc(Cl)cc3)nn21 (stereo not shown) [Compound I-0331]	100 to 1000
CCCCC1CNC(=O)c2cc(-c3ccc(Cl)cc3)nn21 (stereo not shown) [Compound I-0197]	≥ 1000
CCCC(NC(=O)CN1C[C@H](C)n2nc(-c3ccc(Cl)cc3)cc2C1=O)C(=O)O (stereo partly shown) [Compound I-0161]	100 to 1000
CCCCCC1CN(Cc2cccc(OCCCN(C)C)c2)C(=O)c2cc(-c3ccc(Cl)cc3)nn21 (stereo not shown) [Compound I-0135]	100 to 1000
CCCCC1CN(CC(=O)N[C@@H]2CCC[C@H]2O)C(=O)c2cc(-c3ccc(Cl)cc3)nn21 (stereo partly shown) [Compound I-0245]	100 to 1000
CC(=O)Nc1cc(OC(F)(F)F)ccc1-c1cc2n(n1)[C@@H](C)CN(Cc1cccc(C(=O)O)c1)C2=O [Compound I-0345]	< 10
CC(=O)Nc1cc(C#N)cc(CO)c1-c1cc2n(n1)[C@@H](C)CN(Cc1ccc(C#N)cc1)C2=O [Compound I-0348]	10 to 100
CCCCC1CN(CC(=O)NCC(N)=O)C(=O)c2cc(-c3ccc(Cl)cc3)nn21 (stereo not shown) [Compound I-0215]	100 to 1000
CCCCC1CN(CC(=O)N2CCC[C@H](C)C2)C(=O)c2cc(-c3ccc(Cl)cc3)nn21 (stereo partly shown) [Compound I-0242]	100 to 1000
CCCCCC1CN(CC(=O)N2CCC[C@H](C(=O)O)C2)C(=O)c2cc(-c3ccc(Cl)cc3)nn21 (stereo partly shown) [Compound I-0070]	10 to 100
CCCCCC1CN(CC(=O)NCc2ccc(C(=O)O)cc2)C(=O)c2cc(-c3ccc(Cl)cc3)nn21 (stereo not shown) [Compound I-0045]	100 to 1000
CCCCCC1CN(CC(=O)N2CCC[C@H]2C)C(=O)c2cc(-c3ccc(Cl)cc3)nn21 (stereo partly shown) [Compound I-0117]	100 to 1000
CCCCC1CN(CC(=O)OC)C(=O)c2cc(-c3ccc(Cl)cc3)nn21 (stereo not shown) [Compound I-0249]	10 to 100
CCCCC1CN(CCOC)C(=O)c2cc(-c3ccc(Cl)cc3)nn21 (stereo not shown) [Compound I-0271]	100 to 1000
CCCCCC1CN(CC(=O)N2CCC(Cc3ccccc3)C2)C(=O)c2cc(-c3ccc(Cl)cc3)nn21 (stereo not shown) [Compound I-0032]	100 to 1000
CCCCCC1CN(Cc2cccc(C(=O)O)c2)C(=O)c2cc(-c3ccc(Cl)cc3)nn21 (stereo not shown) [Compound I-0148]	< 10
CCCCC1CN(CC(=O)NCCC#N)C(=O)c2cc(-c3ccc(Cl)cc3)nn21 (stereo not shown) [Compound I-0230]	10 to 100
CC(=O)Nc1cc(Cl)ccc1-c1cc2n(n1)[C@@H](C)CN(C[C@@H]1CNC(=O)O1)C2=O [Compound I-0317]	100 to 1000
CCCCCC1CN(CC(=O)NCCC(=O)O)C(=O)c2cc(-c3ccc(Cl)cc3)nn21 (stereo not shown) [Compound I-0044]	10 to 100
CCCCC1CN(CC(=O)N2CCC(OCCO)CC2)C(=O)c2cc(-c3ccc(Cl)cc3)nn21 (stereo not shown) [Compound I-0243]	100 to 1000

SMILES	IC50 [nM]
C[C@H]1CN(Cc2ccc(C#N)cc2)C(=O)c2cc(-c3ccc(Cl)cc3NC(=O)C3CC3)nn21 [Compound I-0322]	10 to 100
C[C@H]1CN(CC(=O)NCCCC(=O)O)C(=O)c2cc(-c3ccc(Cl)cc3)nn21 [Compound I-0157]	≥ 1000
CCCCC1CN(CC(=O)N2CCOC(C#N)C2)C(=O)c2cc(-c3ccc(Cl)cc3)nn21 (stereo not shown) [Compound I-0239]	10 to 100
C[C@H]1CN(Cc2ccc(C#N)cc2)C(=O)c2cc(-c3ccc(Cl)cc3CO)nn21 [Compound I-0297]	100 to 1000
CCCCCC1CN(Cc2ccc(CC(=O)O)cc2)C(=O)c2cc(-c3ccc(Cl)cc3)nn21 (stereo not shown) [Compound I-0124]	< 10
CCCC1CN(Cc2ccc(C#N)cc2)C(=O)c2cc(-c3ccc(Cl)cc3NC(C)=O)nn21 (stereo not shown) [Compound I-0188]	10 to 100
CCCCC1CN(Cc2ccc(C#N)cc2)C(=O)c2cc(-c3ccc(C(F)(F)F)cc3)nn21 (stereo not shown) [Compound I-0191]	100 to 1000
CCCCCC1CN(Cc2cccc(CC(=O)O)c2)C(=O)c2cc(-c3ccc(Cl)cc3)nn21 (stereo not shown) [Compound I-0120]	10 to 100
CCCCCC1CN(CC(=O)N2CCC(CC(=O)O)CC2)C(=O)c2cc(-c3ccc(Cl)cc3)nn21 (stereo not shown) [Compound I-0048]	10 to 100
CC(=O)Nc1cc(Cl)ccc1-c1cc2n(n1)[C@@H](C(F)(F)F)CN(Cc1ccc(C#N)cc1)C2=O [Compound I-0343]	10 to 100
CCCCCC1CN(CC(=O)N(C)CC(=O)O)C(=O)c2cc(-c3ccc(Cl)cc3)nn21 (stereo not shown) [Compound I-0043]	10 to 100
CCCCCC1CN(CC(=O)NCCCCC(=O)O)C(=O)c2cc(-c3ccc(Cl)cc3)nn21 (stereo not shown) [Compound I-0061]	10 to 100
CCOC(=O)C1CCN(C(=O)CN2C(=O)c3cc(-c4ccc(Cl)cc4)nn3[C@@H]3CCC[C@@H]32)CC1 [Compound I-0011]	≥ 1000
C[C@H]1CN(Cc2ccc(C#N)cc2)C(=O)c2cc(-c3ccc(Cl)cc3F)nn21 [Compound I-0327]	≥ 1000
CCCCC1CN(Cc2ccc(C#N)cc2)C(=O)c2cc(-c3ccc(Cl)cc3CNC)nn21 (stereo not shown) [Compound I-0278]	≥ 1000
O=C(O)C1CCN(C(=O)CN2C(=O)c3cc(-c4ccc(Cl)cc4)nn3[C@H]3CCC[C@H]32)CC1 [Compound I-0012]	100 to 1000
C[C@H]1CN(Cc2ccc(C#N)cc2)C(=O)c2cc(-c3ccc(Cl)cc3N)nn21 [Compound I-0320]	≥ 1000
CCCCC1CN(CC(=O)N2CCC(C#N)CC2)C(=O)c2cc(-c3ccc(Cl)cc3)nn21 (stereo not shown) [Compound I-0220]	100 to 1000
CCCCCC1CN(CC(=O)NCCCCCC(=O)O)C(=O)c2cc(-c3ccc(Cl)cc3)nn21 (stereo not shown) [Compound I-0046]	100 to 1000
CC(=O)Nc1cc(OC(F)(F)F)ccc1-c1cc2n(n1)[C@@H](C)CN(Cc1ccc(C#N)cc1)C2=O [Compound I-0334]	< 10
CCCCCC1CN(CC(=O)N2C[C@@H]3C(C(=O)O)[C@@H]3C2)C(=O)c2cc(-c3ccc(Cl)cc3)nn21 (stereo partly shown) [Compound I-0063]	10 to 100
